{"source": "patent US20220062383A1", "about": "“REGULATION OF A FOREIGN BODY RESPONSE” (THE JOHNS HOPKINS UNIVERSITY, priority 2019, published 2022)", "key": {"[1]": {"tested_on": "fibrosis around PCL implants (volumetric muscle loss model)", "assay": "Histology and immunofluorescence (αSMA, picrosirius red) of fibrosis around PCL implants after treatment", "format": "in vivo, C57BL/6 mice", "conditions": "PCL implant; treatment 4 weeks after implantation; tissue at 6 weeks; vs isotype or vehicle control", "experimental": "All animal procedures were performed in accordance with an approved JHU IACUC protocol. Female mice were aged six to eight weeks-old. Several strains were utilized, including wild type C57BL/6j (Jackson Laboratories, Stock #00064), Rag2/OT-II (Taconic Stock #11490), IL17A-/- and IL17RA-/- (courtesy of Dr. Yoichiro Iwakura, University of Tokyo, Tokyo, Japan and Dr. Tomas Mustelin, Amgen, Seattle, respectively). Defects in muscle for material implantation were created as previously described (68). The resulting bilateral muscle defects were filled with 30 mg of a synthetic material. Synthetic materials tested include PCL (particulate, Mn=50000 g/mol, mean particle size<600 μm, Polysciences), ultrahigh molecular weight PE (particulate, Mn=5000 k g/mol, mean particle size=150 μm, Goodfellow), medical graded Silicone (sheet, Summit Medical), PEG hydrogels. PEG hydrogels were made with polyethylene glycol-diacrylate (PEG-DA, Mn=3400). PEG-DA (Polysciences) in PBS at 10% w/v concentration was mixed with photoinitiator (Irgacure 2959 solubilized to 10% w/v in 70% ethanol) to a final concentration of 0.05%. A 50 μL volume solution was cast onto each well of a flat bottom 96 wells plate. The solution was photocrosslinked via UV light for 30 mins to form a hydrogel sheet. […] Co-administration of anti-I[…] and senolytic treatment were also evaluated. […]"}, "[2]": {"tested_on": "foreign body response to PCL implants (volumetric muscle loss model)", "assay": "qRT-PCR gene expression in tissue of PCL-implanted mice after IL17A/F NAb and/or senolytic treatment", "format": "in vivo, C57BL/6 mice", "conditions": "PCL implant", "experimental": "All animal procedures were performed in accordance with an approved JHU IACUC protocol. Female mice were aged six to eight weeks-old. Several strains were utilized, including wild type C57BL/6j (Jackson Laboratories, Stock #00064), Rag2/OT-II (Taconic Stock #11490), IL17A-/- and IL17RA-/- (courtesy of Dr. Yoichiro Iwakura, University of Tokyo, Tokyo, Japan and Dr. Tomas Mustelin, Amgen, Seattle, respectively). Defects in muscle for material implantation were created as previously described (68). The resulting bilateral muscle defects were filled with 30 mg of a synthetic material. Synthetic materials tested include PCL (particulate, Mn=50000 g/mol, mean particle size<600 μm, Polysciences), ultrahigh molecular weight PE (particulate, Mn=5000 k g/mol, mean particle size=150 μm, Goodfellow), medical graded Silicone (sheet, Summit Medical), PEG hydrogels. PEG hydrogels were made with polyethylene glycol-diacrylate (PEG-DA, Mn=3400). PEG-DA (Polysciences) in PBS at 10% w/v concentration was mixed with photoinitiator (Irgacure 2959 solubilized to 10% w/v in 70% ethanol) to a final concentration of 0.05%. A 50 μL volume solution was cast onto each well of a flat bottom 96 wells plate. The solution was photocrosslinked via UV light for 30 mins to form a hydrogel sheet. Both silicone and PEG hydrogels were morselized into particles with a scalpel and placed into the defect. Control implants were injected with 50 μL of PBS (as a no implant control). All materials were UV sterilized prior to use. Directly after surgery, mice were given subcutaneous carprofen (Rimadyl®, Zoetis) at 5 mg/kg for pain relief. Mice were euthanized, and their implants were extracted at different time points: 1, 3, 6, or 12-weeks post-surgery. Additional modes of implantation were subcutaneous and intra-muscular injection. Briefly, synthetic materials were implanted subcutaneously (30 mg) on both flanks of the mice, or injected directly into the quadricep muscles through a 16 G syringe (5 mg of materials). Total RNA was isolated from whole tissue using TRIzol reagent and Qiagen's RNeasy kits. qRT-PCR was performed using Power SYBR Green Master Mix (Applied Biosystems) or TaqMan Gene Expression Master Mix (Applied Biosystems) according to manufacturer's instructions. Briefly, 2 μg of total RNA was used to synthesize cDNA using Superscript IV VILO Master Mix (ThermoFisher Scientific). The cDNA concentration was set to 50 ng/well (in a total volume of 20 μL PCR reaction). The qRT-PCR reactions were performed on the StepOne Plus Real-Time PCR System (ThermoFisher Scientific) using manufacturer recommended settings for quantitative and relative expression. Mice received 100 μl intraperitoneal (IP) injections of anti-IL17A (100 μg/ml, Cat #P13705.15) and anti-IL17F (100 μg/ml, Cat #P56220.17) (provided by Amgen) or isotype control (rat IgG2a, ThermoFisher Scientific, Cat #02-9688) every other day for a week. IL6 blocking antibody was administrated at 100 μg/ml (BioXCell, clone MP5-20F3) per mouse per day for 5 consecutive days. For senolytic treatment, mice received IP and intramuscular (IM) injections of Navitoclax (100 mg/kg, Selleckchem, Cat #HY-10087) for 5 consecutive days or vehicle control (5% DMSO, 3% Tween 80 in PBS). Co-administration of anti-I[…] and senolytic treatment were also evaluated. All mice received treatments at 4-weeks post-surgery for a total of 5 injections (1 injection per day per mouse), and were harvested in the following 2 weeks. The nCounter differential gene expression system was used to assess readable transcripts via the nanoString PanCancer Immune Profiling Panel. We utilized the nSolver software (version 3.0, nanoString Technologies, Inc.). All analyses of qRT-PCR data utilized the Livak Method, wherein ΔΔCt values are calculated, and then reported as relative quantification values calculated by […] (69). Treatment data points are normalized to either healthy or saline treated controls. β2M was utilized as the reference gene. […]"}, "[3]": {"conditions": "treatment 4 weeks after implantation, tissue at 6 weeks"}, "[4]": {"conditions": "treatment at 4 weeks, 6 weeks after implantation"}}}
{"compound": "CC1(C)CCC(c2ccc(Cl)cc2)=C(CN2CCN(c3ccc(C(=O)NS(=O)(=O)c4ccc(N[C@H](CCN5CCOCC5)CSc5ccccc5)c(S(=O)(=O)C(F)(F)F)c4)cc3)CC2)C1", "note": "[Navi, Navitoclax]", "values": [{"measurement": "αSMA immunofluorescence", "setting": "[1]", "value": "reduced"}, {"measurement": "p16INK4a gene expression (senolysis)", "setting": "[2]; one week after treatment, 6 weeks after implantation, p<0.0001", "value": "significantly decreased"}, {"measurement": "Il17a (IL17) gene expression", "setting": "[2]; treatment 4 weeks after implantation, 5 injections, tissue at 6 weeks, vs isotype or vehicle control", "value": "decreased"}, {"measurement": "Collagen I gene expression", "setting": "[2]; [3]", "value": "decreased"}, {"measurement": "Tgfβ gene expression", "setting": "[2]; [3]", "value": "decreased"}, {"measurement": "Il16 gene expression", "setting": "[2]; [4]", "value": "decreased"}, {"measurement": "S100a4 gene expression", "setting": "[2]; [4]", "value": "decreased"}, {"measurement": "collagen III gene expression", "setting": "[2]; [4]", "value": "decreased"}]}
